Here are results for 4 molecules from patent publication US5776957A, “Nornicotine enantiomers for use as a treatment for dopamine related conditions and disease states” (The University of Kentucky Research Foundation, priority 1996, dated 1998).

Molecules are shown by their SMILES. “Also recorded” adds a separate entry of the source. Where two headings read alike, the source gives them in different places.

Series [1] is described as follows: NIC and metabolites in rat brain after s.c. injection of radiolabelled NIC. Format: in vivo. An excerpt: NIC metabolism studies involving HPLRC analysis invariably utilize NIC with a radiolabel (i.e., [^3 H], [^14 C] or [^11 C]) incorporated in the methyl group. However N-demethylated NIC metabolites (norNIC and norCOT) cannot be detected after injection of such radionuclides, since the label is lost in the formation of these metabolites. NIC and four NIC metabolites have recently been detected in rat brain 4 hr after s.c. injection of [2'-^14 C]NIC (FIG. 3, Table I). Three of these metabolites have been identified as COT, norNIC and norCOT. A fourth minor metabolite (Peak B) has not been completely identified but appears to be an N-demethylated metabolite, since it is not detected in the [^3 H-N-methyl]NIC studies.
COT, and therefore, is unlikely to originate from COT N-demethylation. 3-HydroxyCOT and its glucuronide conjugate were not detected as metabolites of either NIC or COT in brain, even though these are major biotransformation products in the periphery (Crooks, 1993).
It appears that NIC metabolites which accumulate with a time course that correlates with the development of behavioral sensitization to NIC have a role in eliciting sensitization to NIC. The inventors have detected NIC, COT, norNIC and norCOT in brain 4 hr following acute s.c. injection of (±)[2'-^14 C]NIC. S(-) [^3 H] -N-methyl]NIC is unsuitable for studying brain metabolism of NIC, since nor-metabolites (i.e., demethylated metabolites) cannot be detected due to [^3 H]-loss during metabolism (Crooks et al., 1995b, AP 7). Thus, commercially available (±)[2'-^14 C]NIC was used to determine NIC metabolites present in brain. This form of radiolabelled NIC provides a metabolically stable [^14 C]-label which allows measurement of all potential NIC metabolites.
A second "metabolite" (Peak A, FIG. 2) was also detected at each time point and most likely results from a combination of metabolic cleavage of the N-methyl group and dissociated-[^3 H], i e, Peak A represents an oxidized 1-carbon unit and indicates the extent of NIC N-demethylation. Note, in our subsequent studies with [2'-^14 C]NIC, Peak A was not observed, which is consistent with our interpretation of the results (Table 1).

Series [2] concerns [3H]DA-preloaded rat striatal slices (nicotinic receptors). Kind of series: [3H]overflow (DA release) from [3H]DA-preloaded rat striatal slices. Format: cell-based. On the procedure: In vitro pharmacological effects of NIC are generally investigated using either striatal slices or synaptosome preparations preloaded with [^3 H] DA. NIC-evoked [^3 H]overflow is obtained routinely in the presence of nomifensine (10 μM; a DA uptake inhibitor) and for pargyline (10 μM, a monoamine oxidase inhibitor) in the superfusion buffer, such that [^3 H]overflow represents primarily [^3 H]DA rather than [H]DA-metabolites (Zumstein et al., 1981, Hoffmann and Cubeddu, 1982, Dwoskin and Zahniser, 1986, Rapier et al., 1988), and for this reason, [^3 H]overflow also will be referred to as [^3 H] DA release in the proposal.
The present studies use striatal slices superfused with various concentrations of NIC or norNIC for prolonged periods.
FIG. 4. […] Insets illustrate the response to the low concentration range. […] NIC exposure indicated by the bar under time course. Note: 1-min sample collection period. […] N=4 rats.
Rat striatal slices were depolarized with 10 μM NIC, 20 mM K+or 1 Hz, 60 pulses or 3 Hz, 180 pulses electrical field stimulation. […] N=4.
MEC or DHβE was included in the superfusion buffer for 60 min prior to the addition of NIC, and superfusion continued for 60 min in the presence of NIC+antagonist.

The conditions of series [3]: GC-MS, Deutsch et al., 1992; cited from earlier work.
The conditions of series [4]: i.p. [14C-N-methyl]NIC, HPLRC; cited from earlier work.
The conditions of series [5]: Stolerman et al. (1995), cited from earlier work.
The conditions of series [6]: Stolerman et al., 1984; cited from earlier work.
Series [7] has as its system N-methyl-D-aspartate(NMDA) receptor. Conditions: MK-801 site within the channel; cited from earlier work.
The conditions of series [8]: cited from earlier work.
The conditions of series [9]: water, ethyl alcohol, ether, chloroform, benzene, ethyl acetate, carbon disulfide; cited from earlier work.
Series [10] can be described thus: Locomotor activity assay, acute and repeated treatment, S(-) nicotine challenge, saline challenge. The series is classed as in vivo, rat. Conditions: for behavioral sensitization after repeated administration: 8 injections once every 48 hrs, nicotine 1 mg/kg, R(+) 0.3-10 mg/kg, S(-) nornicotine 10 mg/kg; for enabling of sensitization to S(-) nicotine: repeated R(+) nornicotine, S(-) nicotine challenge. On the procedure: (I mg/kg), norNIC (0.3-10 mg/kg) or R(+) norNIC (0.3-10 mg/kg) was administered peripherally (s.c., 8 injections once every 48 hrs) to groups of rats and locomotor activity was assessed for 50 min immediately after each injection.
In the present study, S(-) nicotine (1 mg/kg), R(+) nornicotine (1-10 mg/kg), S(-) nornicotine (1-10 mg/kg), or vehicle (saline) were administered s.c. to groups of rats (n=6) acutely or repeatedly (8 injections once every 48 hrs). Locomotor activity was measured during 50 min sessions immediately following drug or vehicle administration.
Male Sprague-Hawley rats (225-250 g) from Harlan Laboratories were housed two per cage with free access to food and water.
Activity was recorded automatically in a wooden test-chamber measuring 30×28×43 cm high. The chamber had white walls and a wire mesh floor over pine chip bedding. Two photobeams located 4.5 cm above the floor divided the chamber into four equal quadrants. Electromechanical equipment located in an adjacent room recorded photobeam interruptions automatically. A white noise generator provided an ambient 70 dB background noise in the test room in order to minimize extraneous sounds that might influence the animal's behavior in the test chamber. Rats were habituated to the chamber for 50 min on each of three consecutive days.
On the day immediately after the third habituation session, rats were randomly divided into groups (n=6/group) and were administered s.c. either S(-) nicotine (1 mg/kg), R(+) nornicotine (0.3, 1, 3 and 10 mg/kg), or vehicle (saline) to determine acute drug effects on locomotor activity. In a separate experiment, rats (n=6/group) were administered s.c. either S(-) nicotine (1 mg/kg), S(-) nornicotine (0.3, 1, 3 and 10 mg/kg), or vehicle (saline). To determine the effect of repeated drug administration on locomotor activity, drug or vehicle was administered respectively in the test-room once every 48 hrs for a total of 8 injections. After each injection, locomotor activity was recorded during a 50 min session (five 10-min blocks). On the ninth injection day (48 hrs following injection 8), each group of rats was administered a challenge dose (1 mg/kg) of S(-) nicotine in the test-room, and locomotor activity was determined immediately thereafter. On the tenth injection day, each group of rats was administered saline and locomotor activity recorded to determine potential conditioning effects of the repeated drug administration.
Post hoc analysis of pairwise comparisons was performed with Duncan's New Multiple Range test.

Series [11] has as its system nicotinic receptor sites in the brain. Kind of series: displacement of nicotine from nicotinic receptor sites in the brain. Format: binding.

With `CN1C(=O)CC[C@H]1c1cccnc1` [COT, Cotinine], the “detectability in brain at 18 hrs post-injection” value in series [1] (18 hrs) was “still detectable”. Further, in [1] (rat brain), the “residence time in the CNS relative to NIC” value was “longer residence time in the CNS than NIC”. Further, the “presence as metabolite in brain” value in series [1] (rat brain, after s.c. radiolabelled NIC) is “major metabolite of NIC in brain”. Moreover, the “evoked [3H]overflow” value in series [2] (concentration-dependent) is listed as “concentration dependent increase”. The “presence in rat brain after peripheral NIC injection” value in series [3] is recorded as “not found in rat brain”. In addition, the “detection in mouse brain” value in series [4] is reported as “detected”.
Consider `CNC1(C)C2CCC(C2)C1(C)C` (centres unmarked) [MEC, mecamylamine], for which the “inhibition of NIC-evoked [3H]overflow” value in [2] (10 μM NIC, concentration-dependent) was “robustly inhibited”. Moreover, the “effect on [3H]DA release itself” value in series [2] (0.01-100 μM) is “did not alter [^3 H]DA release itself”. Moreover, the “inhibition of norNIC-evoked [3H]overflow” value in series [2] (high concentrations (100 μM-3 mM) of norNIC) is recorded as “ineffective in inhibiting”; in [2] (low concentrations (<100 μM) of norNIC) it was “effectively inhibited”. Also, the “mode of antagonism of norNIC response” value in series [2] (norNIC concentration-response curve) is recorded as “noncompetitive”. In addition, the “block of R(+) norNIC-induced decrease in locomotor activity” value in series [5] is recorded as “blocked”. Further, the “effect on nicotine interoceptive cues” value in series [6] was “blocks nicotine interoceptive cues”. For the same molecule, in series [7], the NMDA receptor inhibition result is “noncompetitive inhibitor”.
For the molecule `CN1CCCC1=O` [N-methyl-2-pyrrolidone], in series [8] (Ames type assays and chronic exposure studies), the toxicity result is listed as “not revealed any significant toxicity”. The “irritation or sensitization potential” value in [8] (animal and human experiments) is “very little irritation or sensitization potential”. Also, the miscibility entry in [9] is on record as “miscible with water”.
On to `c1cncc([C@H]2CCCN2)c1` [R(+) nornicotine, R-(+) nornicotine], for which the “release of dopamine from presynaptic terminals” value in series [2] (neuronal tissue) is “stereoselective and receptor-mediated”. The “behavioral sensitization after repeated administration” value was “did not produce behavioral sensitization; also recorded: did not result in behavioral sensitization; also recorded: does not” in series [10] and “does not” in series [10] (listed as R(+) norNIC). Besides, the “conditioned response to repeated administration (saline challenge)” value in series [10] (48 hrs after S(-) nicotine challenge) is given as “did not contribute to the observed behavioral sensitization”. In addition, the “cumulated locomotor activity after saline challenge” value in series [10] (R(+) experiment, 0.3 mg/kg) was 368 ± 39 number of photobeam interruptions/50 min session; in [10] (R(+) experiment, 1.0 mg/kg), 478 ± 40 number of photobeam interruptions/50 min session; in series [10] (R(+) experiment, 3.0 mg/kg), 498 ± 44 number of photobeam interruptions/50 min session; in series [10] (R(+) experiment, 10 mg/kg), 234 ± 30 number of photobeam interruptions/50 min session. Besides, the “locomotor activity time course” value is reported as “small, but not significant, decreases” in series [10] (acute R(+) 0.3 mg/kg); “significantly decreased” in series [10] (acute R(+) 10 mg/kg, initial 20 min); “not different from the saline-control group” in series [10] (acute R(+) 10 mg/kg, latter part of session); “not different from that of the saline-control group” in [10] (repeated R(+) 0.3-10 mg/kg). Further, the “cumulated locomotor activity vs saline-control” value is listed as “depression in activity” in series [10] (acute, 0.3 and 10 mg/kg, R(+) experiment); “decreased significantly” in series [10] (repeated, R(+) 0.3 mg/kg); “not different from that of the saline-control group” in series [10] (repeated, R(+) 1, 3 and 10 mg/kg). In addition, in [10] (acute, R(+) 3 mg/kg s.c.), the “locomotor activity, first 10 min” value was found to be 125±17 photobeam interruptions. Moreover, the “locomotor activity, first 10 min after S(-) nicotine challenge” value in series [10] (repeated R(+) 1 mg/kg) is on record as 127±12 photobeam interruptions; in [10] (repeated R(+) 3 mg/kg) it was 136+32 photobeam interruptions. Moreover, the “cumulated locomotor activity after S(-) nicotine challenge” value is given as “not different from the saline-control group” in [10] (repeated R(+) 0.3 and 1 mg/kg); “significant increases in activity” in series [10] (repeated R(+) 3 and 10 mg/kg). For the same molecule, the “S(-) nicotine-induced stimulation, first 10 min” value was “significant (P<0.001) and dose-dependent” in series [10] (repeated R(+) 1-10 mg/kg); “not significant” in series [10] (repeated, R(+) 0.3 mg/kg). In addition, the “enabling of sensitization to S(-) nicotine” value in series [10] is listed as “enabled sensitization to S(-) nicotine; also recorded: dose-related sensitization to the stimulatory effect of S(-) nicotine”; in series [10] (listed as R(+) norNIC), “enabled an enhanced response to NIC challenge”. Moreover, the “tolerance to depressant effect” value in [10] (repeated, R(+) 0.3 mg/kg) was “tolerance did not develop”; in series [10] (repeated, R(+) 10 mg/kg) it was “tolerance developed”. Moreover, the “displacement of nicotine from nicotinic receptor sites” value in series [11] was “cause displacement of nicotine”. The “cross-sensitization after chronic nicotine” value is “increased activity, demonstrating cross-sensitization; also recorded: increased activity (i.e., cross-sensitization)” in series [5] and “cross-sensitization to R(+) norNIC was observed” in series [5] (listed as R(+) norNIC). In addition, in [5], the “locomotor activity, acute” value was “decreased locomotor activity”.
